The source of these data is patent publication US10988449B2, “Isoxazole derivatives as nuclear receptor agonists and uses thereof” (IL DONG PHARMACEUTICAL CO., LTD., priority 2017, dated 2021).

This experiment concerns the target T1, human FXR (Homo sapiens, UniProt Q96RI1).
T1 construct: expressed in transfected cells
T1 sequence (Q96RI1 1-486): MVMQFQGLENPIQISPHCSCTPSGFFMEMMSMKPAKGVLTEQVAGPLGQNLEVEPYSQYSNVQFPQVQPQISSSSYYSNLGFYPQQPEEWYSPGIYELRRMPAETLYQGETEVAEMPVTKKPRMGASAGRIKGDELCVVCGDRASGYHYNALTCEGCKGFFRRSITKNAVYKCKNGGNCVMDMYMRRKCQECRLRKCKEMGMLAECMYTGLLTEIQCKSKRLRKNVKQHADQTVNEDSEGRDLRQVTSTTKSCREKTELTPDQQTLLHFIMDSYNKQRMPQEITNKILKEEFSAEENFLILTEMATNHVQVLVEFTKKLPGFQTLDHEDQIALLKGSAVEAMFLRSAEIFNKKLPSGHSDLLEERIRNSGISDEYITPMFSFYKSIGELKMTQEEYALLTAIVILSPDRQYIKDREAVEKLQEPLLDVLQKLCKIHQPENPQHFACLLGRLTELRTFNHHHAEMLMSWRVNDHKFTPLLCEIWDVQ
Nature of the experiment: FXR reporter assay (cellular FXR activities). The experiment is classed as cell-based. As to conditions: for EC50: FXR reporter cells, 24 hours incubation, luciferase, read-out: Reporter Cell EC50; for Emax: read-out: Emax (%) (GW4064 Emax = 100%). As to the method: FXR reporter assay was performed to measure cellular FXR activities of the compounds in the present invention. FXR reporter cells with high expression level of human FXR were seeded into 96-well cell culture plates, and incubated for 1-2 hours at 37° C. under 5% CO2 atmosphere. The invented compounds diluted in DMSO with various concentrations were added to the 96-well cell culture plates, and they were incubated for 24 hours at 37° C. under 5% CO2 atmosphere. After incubation, we calculate EC50 by using luciferase substrate.

A value given as a limit tells only on which side of the number the result lay.

Usually EC50 stands for the midpoint of the concentration-response curve. By Emax is commonly meant the size of the effect at its maximum, as opposed to the concentration needed. As for `O=C(O)c1cccc(C#Cc2c(F)cc(OCc3c(-c4c(Cl)cccc4Cl)noc3C3CC3)cc2Cl)c1` [Compound I-70, 3-((2-chloro-4-((5-cyclopropyl-3-(2,6-dichlorophenyl)isoxazol-4-yl)methoxy)-6-fluorophenyl)ethynyl)benzoic acid], the EC50 lay within 60 to 200 nM and the Emax was more than 100%.

Take `O=C(O)c1cc(C#Cc2ccc(OCc3c(-c4c(Cl)cccc4Cl)noc3C3CC3)cc2Cl)cc2ncoc12` [Compound I-102, 5-((2-chloro-4-((5-cyclopropyl-3-(2,6-dichlorophenyl)isoxazol-4-yl)methoxy)phenyl)ethynyl)benzo[d]oxazole-7-carboxylic acid]: the EC50 fell in the range of 200 to 1000 nM and the maximal response (Emax) is more than 100%.

Turning to `CN(C)c1cc(C(=O)O)ccc1C#Cc1ccc(OCc2c(-c3c(Cl)cccc3Cl)noc2C2CC2)cc1Cl` [Compound I-22, 4-((2-chloro-4-((5-cyclopropyl-3-(2,6-dichlorophenyl)isoxazol-4-yl)methoxy)phenyl)ethynyl)-3-(dimethylamino)benzoic acid], the EC50 lay within 60 to 200 nM and the maximum response (Emax) is 93%.

Take `CN(C)c1cc(C#Cc2ccc(OCc3c(-c4c(Cl)cccc4Cl)noc3C3CC3)cc2Cl)ccc1C(=O)O` [Compound I-23, 4-((2-chloro-4-((5-cyclopropyl-3-(2,6-dichlorophenyl)isoxazol-4-yl)methoxy)phenyl)ethynyl)-2-(dimethylamino)benzoic acid]: the EC50 lay in the range of 60 to 200 nM and the Emax is more than 100%.

In the case of `CCNc1cc(C#Cc2ccc(OCc3c(-c4c(Cl)cccc4Cl)noc3C3CC3)cc2Cl)cc(C(=O)O)c1` [Compound I-53, 3-((2-chloro-4-((5-cyclopropyl-3-(2,6-dichlorophenyl)isoxazol-4-yl)methoxy)phenyl)ethynyl)-5-(ethylamino)benzoic acid], the EC50 is not above 20 nM and the Emax was determined as 93%.

For the molecule `CN(C)CCn1ccc2c(C#Cc3ccc(OCc4c(-c5c(Cl)cccc5Cl)noc4C4CC4)cc3Cl)cc(C(=O)O)cc21` [Compound I-92, 4-((2-chloro-4-((5-cyclopropyl-3-(2,6-dichlorophenyl)isoxazol-4-yl)methoxy)phenyl)ethynyl)-1-(2-(dimethylamino)ethyl)-1H-indole-6-carboxylic acid], the concentration for a half-maximal effect (EC50) lay in the range of 20 to 60 nM and the maximal effect (Emax) came out at 87%.

Regarding `CCOC(=O)N(C)c1cc(C#Cc2ccc(OCc3c(-c4c(Cl)cccc4Cl)noc3C3CC3)cc2Cl)cc(C(=O)O)c1` [Compound I-75], the concentration for a half-maximal effect (EC50) lay within 20 to 60 nM and the Emax was 93%.

`O=C(O)c1ccnc(C#Cc2ccc(OCc3c(-c4c(Cl)cccc4Cl)noc3C3CC3)cc2Cl)c1` [Compound I-18, 2-((2-chloro-4-((5-cyclopropyl-3-(2,6-dichlorophenyl)isoxazol-4-yl)methoxy)phenyl)ethynyl)isonicotinic acid]: the 50% effective concentration (EC50) fell in the range of 200 to 1000 nM and the maximal response (Emax) came out at 87%.

On to `Cc1c(N)cc(C(=O)O)cc1C#Cc1ccc(OCc2c(-c3c(Cl)cccc3Cl)noc2C2CC2)cc1Cl` [Compound I-60, 3-amino-5-((2-chloro-4-((5-cyclopropyl-3-(2,6-dichlorophenyl)isoxazol-4-yl)methoxy)phenyl)ethynyl)-4-methylbenzoic acid], for which the EC50 lay in the range of 20 to 60 nM and the Emax was 98%.

Take `O=C(O)c1cc(C#Cc2ccc(OCc3c(-c4c(Cl)cccc4Cl)noc3C3CC3)cc2Cl)cc(N2CCOC2=O)c1` [Compound I-83, 3-((2-chloro-4-((5-cyclopropyl-3-(2,6-dichlorophenyl)isoxazol-4-yl)methoxy)phenyl)ethynyl)-5-(2-oxooxazolidin-3-yl)benzoic acid]: the EC50 was in the range of 20 to 60 nM and the Emax turned out to be 89%.

Regarding `O=C(O)c1cc(C#Cc2ccc(OCc3c(-c4c(Cl)cccc4Cl)noc3C3CC3)cc2Cl)cc(CNC2COC2)c1` [Compound I-51, 3-((2-chloro-4-((5-cyclopropyl-3-(2,6-dichlorophenyl)isoxazol-4-yl)methoxy)phenyl)ethynyl)-5-((oxetan-3-ylamino)methyl)benzoic acid], the EC50 fell in the range of 200 to 1000 nM and the Emax came to 75%.

Turning to `N#Cc1cc(C#Cc2ccc(OCc3c(-c4c(Cl)cccc4Cl)noc3C3CC3)cc2Cl)cc(C(=O)O)c1` [Compound I-33, 3-((2-chloro-4-((5-cyclopropyl-3-(2,6-dichlorophenyl)isoxazol-4-yl)methoxy)phenyl)ethynyl)-5-cyanobenzoic acid], the EC50 is 60 to 200 nM and the Emax came out at 99%.

For the molecule `CCOC(=O)Nc1cc(C#Cc2ccc(OCc3c(-c4c(Cl)cccc4Cl)noc3C3CC3)cc2Cl)cc(C(=O)OC)c1` [Compound I-8, methyl 3-((2-chloro-4-((5-cyclopropyl-3-(2,6-dichlorophenyl)isoxazol-4-yl)methoxy)phenyl)ethynyl)-5-((ethoxycarbonyl)amino)benzoate], the concentration giving a half-maximal response (EC50) was more than 1000 nM and the Emax amounted to 98%.

Take `CCNC(=O)Nc1cc(C#Cc2ccc(OCc3c(-c4c(Cl)cccc4Cl)noc3C3CC3)cc2Cl)cc(C(=O)O)c1` [Compound I-72, 3-((2-chloro-4-((5-cyclopropyl-3-(2,6-dichlorophenyl)isoxazol-4-yl)methoxy)phenyl)ethynyl)-5-(3-ethylureido)benzoic acid]: the EC50 was in the range of 200 to 1000 nM and the Emax was more than 100%.

For the molecule `CC(=O)Nc1cc(C#Cc2ccc(OCc3c(-c4c(Cl)cccc4Cl)noc3C3CC3)cc2Cl)cc(C(=O)O)c1` [Compound I-73, 3-acetamido-5-((2-chloro-4-((5-cyclopropyl-3-(2,6-dichlorophenyl)isoxazol-4-yl)methoxy)phenyl)ethynyl)benzoic acid], the EC50 fell in the range of 200 to 1000 nM and the Emax is more than 100%.

For `O=C(O)c1cccc(C#Cc2ccc(OCc3c(-c4c(Cl)cccc4Cl)noc3C3CC3)cc2Cl)c1Cl` [Compound I-35, 2-chloro-3-((2-chloro-4-((5-cyclopropyl-3-(2,6-dichlorophenyl)isoxazol-4-yl)methoxy)phenyl)ethynyl)benzoic acid], the EC50 was in the range of 200 to 1000 nM and the Emax amounted to 86%.

As to `O=C(O)c1cc(C#Cc2ccc(OCc3c(-c4c(Cl)cccc4Cl)noc3C3CC3)cc2Cl)cc2nc(C3CC3)oc12` [Compound I-110, 5-((2-chloro-4-((5-cyclopropyl-3-(2,6-dichlorophenyl)isoxazol-4-yl)methoxy)phenyl)ethynyl)-2-cyclopropylbenzo[d]oxazole-7-carboxylic acid], the EC50 was not above 20 nM and the Emax came to 92%.

As to `NS(=O)(=O)Nc1cccc(C#Cc2ccc(OCc3c(-c4c(Cl)cccc4Cl)noc3C3CC3)cc2Cl)c1` [Compound I-14, N-(3-((2-chloro-4-((5-cyclopropyl-3-(2,6-dichlorophenyl)isoxazol-4-yl)methoxy)phenyl)ethynyl)phenyl)sulfamide], the 50% effective concentration (EC50) fell in the range of 200 to 1000 nM and the Emax is 96%.

Take `CN(C)c1ccc(C(=O)O)cc1C#Cc1ccc(OCc2c(-c3c(Cl)cccc3Cl)noc2C2CC2)cc1Cl` [Compound I-26, 3-((2-chloro-4-((5-cyclopropyl-3-(2,6-dichlorophenyl)isoxazol-4-yl)methoxy)phenyl)ethynyl)-4-(dimethylamino)benzoic acid]: the EC50 is 200 to 1000 nM and the Emax was more than 100%.
